Measurements reported in BigSolDB 2.1.

Cc1cnc(NC(=O)C2=C(O)c3ccccc3S(=O)(=O)N2C)s1
solubility (mole fraction)
Conditions	288.15 K	293.15 K	298.15 K	303.15 K	308.15 K
in ethanol	2.2e-05	2.55e-05	3.2e-05	3.95e-05	5.3e-05
in ethylene glycol	2.53e-05	2.59e-05	3.02e-05	2.91e-05	3.06e-05
in propylene glycol	4.49e-05	4.52e-05	4.74e-05	5.6e-05	6.61e-05
in water	2e-07	3e-07	4e-07	9e-07	1.1e-06
